The experiment relates to BDF1 mice, L1210 leukemia sc, survival T/C. In words: NCI In Vivo Anticancer Drug Screen. Data for tumor model L1210 Leukemia (subcutaneous) in B6D2F1 (BDF1) mice. The settings on record: higher = longer survival. In short, it runs like this:
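Tumors were transplanted into mice, the animals were treated with compound, survival or tumor size was then measured, and treated values were divided by vehicle-control values.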

Setting [1] is: endpoint: median survival time, dose: 0.65 mg/kg/injection, schedule: Q01DX Z (sc), vehicle: methylcellulose (MC).
[2] abbreviates: endpoint: median survival time, dose: 1.08 mg/kg/injection, schedule: Q01DX Z (sc), vehicle: methylcellulose (MC).
Setting [3] is: endpoint: median survival time, dose: 3.0 mg/kg/injection, schedule: Q01DX Z (sc), vehicle: methylcellulose (MC).
Setting [4] is: endpoint: median survival time, dose: 5.0 mg/kg/injection, schedule: Q01DX Z (sc), vehicle: methylcellulose (MC).

Values joined by “and” are separate entries in the source; they are usually repeats but may differ in a detail not shown here. Identical values can stand only once. Toxic doses and inconclusive results are not listed.

As to `Nc1nc(=S)c2[nH]cnc2[nH]1`, the T/C was 100 % of control and 102 % of control (endpoint: median survival time, dose: 0.37 mg/kg/injection, schedule: Q01DX009 (sc), vehicle: other); 104 % of control and 110 % of control (endpoint: median survival time, dose: 0.47 mg/kg/injection, schedule: Q01DX Z (sc), vehicle: methylcellulose (MC)); 100 % of control under setting [1]; 110 % of control and 111 % of control (endpoint: median survival time, dose: 0.75 mg/kg/injection, schedule: Q01DX009 (sc), vehicle: other); 100 % of control and 120 % of control (endpoint: median survival time, dose: 0.78 mg/kg/injection, schedule: Q01DX Z (sc), vehicle: methylcellulose (MC)); 100 % of control (endpoint: median survival time, dose: 1.0 mg/kg/injection, schedule: Q01DX Z (sc), vehicle: other). Also, the T/C was 109 % of control under setting [2]; 118 % of control (endpoint: median survival time, dose: 1.3 mg/kg/injection, schedule: Q01DX Z (sc), vehicle: methylcellulose (MC)); 150 % of control (endpoint: median survival time, dose: 1.5 mg/kg/injection, schedule: Q01DX009 (sc), vehicle: other); 150 % of control (endpoint: median survival time, dose: 1.5 mg/kg/injection, schedule: Q## X009 (sc), vehicle: other); 109 % of control (endpoint: median survival time, dose: 1.8 mg/kg/injection, schedule: Q01DX Z (oral), vehicle: methylcellulose (MC)); 118 % of control (endpoint: median survival time, dose: 2.0 mg/kg/injection, schedule: Q02DX Z (sc), vehicle: other). In addition, the T/C reads like this: (endpoint: median survival time, dose: 2.16 mg/kg/injection, schedule: Q01DX Z (oral), vehicle: methylcellulose (MC)) 109 % of control; (endpoint: median survival time, dose: 2.5 mg/kg/injection, schedule: Q02DX009 (sc), vehicle: other) 152 % of control; (endpoint: median survival time, dose: 2.5 mg/kg/injection, schedule: Q02DX Z (sc), vehicle: other) 155 % of control; (endpoint: median survival time, dose: 3.0 mg/kg/injection, schedule: Q01DX009 (sc), vehicle: other) 150 % of control and 152 % of control and 156 % of control; (endpoint: median survival time, dose: 3.0 mg/kg/injection, schedule: Q01DX Z (oral), vehicle: methylcellulose (MC)) 118 % of control; under setting [3], 154 % of control. The T/C reads like this: (endpoint: median survival time, dose: 3.0 mg/kg/injection, schedule: Q## X009 (sc), vehicle: other) 152 % of control; (endpoint: median survival time, dose: 3.6 mg/kg/injection, schedule: Q01DX Z (oral), vehicle: methylcellulose (MC)) 109 % of control; (endpoint: median survival time, dose: 3.6 mg/kg/injection, schedule: Q01DX Z (sc), vehicle: methylcellulose (MC)) 150 % of control; (endpoint: median survival time, dose: 4.0 mg/kg/injection, schedule: Q02DX Z (sc), vehicle: other) 159 % of control; under setting [4], 154 % of control; (endpoint: median survival time, dose: 5.0 mg/kg/injection, schedule: Q02DX009 (sc), vehicle: other) 165 % of control. Besides, the T/C is, setting by setting: (endpoint: median survival time, dose: 5.0 mg/kg/injection, schedule: Q02DX Z (sc), vehicle: other) 172 % of control; (endpoint: median survival time, dose: 6.0 mg/kg/injection, schedule: Q01DX009 (sc), vehicle: other) 155 % of control and 162 % of control; (endpoint: median survival time, dose: 6.0 mg/kg/injection, schedule: Q01DX Z (oral), vehicle: methylcellulose (MC)) 113 % of control; (endpoint: median survival time, dose: 6.0 mg/kg/injection, schedule: Q01DX Z (sc), vehicle: methylcellulose (MC)) 150 % of control; (endpoint: median survival time, dose: 8.0 mg/kg/injection, schedule: Q01DX Z (sc), vehicle: other) 154 % of control; (endpoint: median survival time, dose: 8.0 mg/kg/injection, schedule: Q02DX Z (sc), vehicle: other) 154 % of control. Also, the T/C was 163 % of control (endpoint: median survival time, dose: 8.4 mg/kg/injection, schedule: Q01DX Z (oral), vehicle: methylcellulose (MC)); 118 % of control (endpoint: median survival time, dose: 10.0 mg/kg/injection, schedule: Q01DX Z (oral), vehicle: methylcellulose (MC)); 150 % of control (endpoint: median survival time, dose: 10.0 mg/kg/injection, schedule: Q01DX Z (sc), vehicle: methylcellulose (MC)); 160 % of control (endpoint: median survival time, dose: 10.0 mg/kg/injection, schedule: Q02DX009 (sc), vehicle: other); 166 % of control (endpoint: median survival time, dose: 10.0 mg/kg/injection, schedule: Q02DX Z (sc), vehicle: other); 150 % of control (endpoint: median survival time, dose: 16.0 mg/kg/injection, schedule: Q02DX Z (sc), vehicle: other). Besides, the T/C is 118 % of control (endpoint: median survival time, dose: 17.0 mg/kg/injection, schedule: Q01DX Z (oral), vehicle: methylcellulose (MC)); 150 % of control (endpoint: median survival time, dose: 20.0 mg/kg/injection, schedule: Q02DX Z (sc), vehicle: other); 104 % of control (endpoint: median survival time, dose: 28.0 mg/kg/injection, schedule: Q01DX Z (oral), vehicle: methylcellulose (MC)); 154 % of control (endpoint: median survival time, dose: 32.0 mg/kg/injection, schedule: Q02DX Z (sc), vehicle: other); 154 % of control (endpoint: median survival time, dose: 39.0 mg/kg/injection, schedule: Q01DX Z (oral), vehicle: methylcellulose (MC)); 155 % of control (endpoint: median survival time, dose: 40.0 mg/kg/injection, schedule: Q02DX Z (sc), vehicle: other). For the same compound, the T/C (endpoint: median survival time, dose: 47.0 mg/kg/injection, schedule: Q01DX Z (oral), vehicle: methylcellulose (MC)) is 109 % of control.
With `CCCn1cnc2c(=S)nc(N)[nH]c21`, the T/C by setting is: under setting [1], 100 % of control; (endpoint: median survival time, dose: 0.65 mg/kg/injection, schedule: Q01DX Z (sc), vehicle: other) 100 % of control; under setting [2], 100 % of control; (endpoint: median survival time, dose: 1.08 mg/kg/injection, schedule: Q01DX Z (sc), vehicle: other) 100 % of control; (endpoint: median survival time, dose: 1.8 mg/kg/injection, schedule: Q01DX Z (sc), vehicle: methylcellulose (MC)) 100 % of control; (endpoint: median survival time, dose: 1.8 mg/kg/injection, schedule: Q01DX Z (sc), vehicle: other) 105 % of control. The T/C is 111 % of control under setting [3]; 111 % of control (endpoint: median survival time, dose: 3.0 mg/kg/injection, schedule: Q01DX Z (sc), vehicle: other); 111 % of control under setting [4]; 122 % of control (endpoint: median survival time, dose: 5.0 mg/kg/injection, schedule: Q01DX Z (sc), vehicle: other); 122 % of control (endpoint: median survival time, dose: 8.4 mg/kg/injection, schedule: Q01DX Z (sc), vehicle: methylcellulose (MC)); 155 % of control (endpoint: median survival time, dose: 8.4 mg/kg/injection, schedule: Q01DX Z (sc), vehicle: other). Besides, the T/C is, setting by setting: (endpoint: median survival time, dose: 14.0 mg/kg/injection, schedule: Q01DX Z (sc), vehicle: other) 161 % of control; (endpoint: median survival time, dose: 230.0 mg/kg/injection, schedule: Q01DX Z (sc), vehicle: other) 155 % of control; (endpoint: median survival time, dose: 390.0 mg/kg/injection, schedule: Q01DX Z (sc), vehicle: other) 150 % of control.
Regarding `COc1cccc2c1C(=O)c1c(O)c3c(c(O)c1C2=O)CC(O)(C(C)=O)CC3OC1CC(N)C(O)C(C)O1` (stereo unspecified), the T/C by setting is: (endpoint: median survival time, dose: 11.7 mg/kg/injection, schedule: Q04DX003 (ip), vehicle: saline) 90 % of control; (endpoint: median survival time, dose: 23.4 mg/kg/injection, schedule: Q04DX003 (ip), vehicle: saline) 94 % of control; (endpoint: median survival time, dose: 46.8 mg/kg/injection, schedule: Q04DX003 (ip), vehicle: saline) 91 % of control; (endpoint: median survival time, dose: 93.6 mg/kg/injection, schedule: Q04DX003 (ip), vehicle: saline) 91 % of control; (endpoint: median survival time, dose: 187.2 mg/kg/injection, schedule: Q04DX003 (ip), vehicle: saline) 90 % of control.
Turning to `C1OC1CN1CCC(C2CCN(CC3CO3)CC2)CC1` (stereo unspecified), the T/C reads like this: under setting [4], 109 % of control; (endpoint: median survival time, dose: 14.0 mg/kg/injection, schedule: Q01DX Z (sc), vehicle: methylcellulose (MC)) 109 % of control; (endpoint: median survival time, dose: 23.0 mg/kg/injection, schedule: Q01DX Z (sc), vehicle: methylcellulose (MC)) 104 % of control; (endpoint: median survival time, dose: 65.0 mg/kg/injection, schedule: Q03DX Z (sc), vehicle: methylcellulose (MC)) 109 % of control; (endpoint: median survival time, dose: 108.0 mg/kg/injection, schedule: Q01DX Z (sc), vehicle: methylcellulose (MC)) 118 % of control; (endpoint: median survival time, dose: 180.0 mg/kg/injection, schedule: Q03DX Z (sc), vehicle: methylcellulose (MC)) 118 % of control.
For the compound `CC(=O)Nc1ccc2c(Nc3ccc(NS(C)(=O)=O)cc3)c3ccccc3nc2c1`, the T/C is 114 % of control (endpoint: mean survival time, dose: 1.5 mg/kg/injection, schedule: Q01DX009 (sc), vehicle: saline); 111 % of control (endpoint: mean survival time, dose: 3.0 mg/kg/injection, schedule: Q01DX009 (sc), vehicle: saline); 121 % of control (endpoint: mean survival time, dose: 6.25 mg/kg/injection, schedule: Q01DX009 (sc), vehicle: saline); 182 % of control (endpoint: mean survival time, dose: 12.5 mg/kg/injection, schedule: Q01DX009 (sc), vehicle: saline).
Turning to `O=C(Nc1ccc(C2=NCCN2)cc1)c1ccc(NC(=O)c2ccc(C3=NCCN3)cc2)cc1`, the T/C runs as follows: (endpoint: median survival time, dose: 39.0 mg/kg/injection, schedule: Q01DX Z (sc), vehicle: methylcellulose (MC)) 95 % of control; (endpoint: median survival time, dose: 180.0 mg/kg/injection, schedule: Q01DX Z (sc), vehicle: methylcellulose (MC)) 115 % of control; (endpoint: median survival time, dose: 300.0 mg/kg/injection, schedule: Q01DX Z (sc), vehicle: methylcellulose (MC)) 110 % of control.

The values above are taken from PubChem BioAssay AID250 (DTP/NCI, 2004).
